In data set [1] the test system is human umbilical vein endothelial cells (HUVEC). Kind of data set: ALAMAR BLUE cell viability assay. The settings on record: 24 hours. The data set is classed as cell-based. As for the experimental part:
(§1) Bovine aortic endothelial cells (BAEC), human umbilical vein endothelial cells (HUVEC), fibroblast cells, A549 human lung carcinoma cells (A549), MDA-MB231 human breast carcinoma cells (MB231), MCF7 human breast carcinoma cells (MCF7) were treated with 37 μg/ml of receptor, or buffer alone, for 24 hours. Viability of the cells was measured using the ALAMAR BLUE™ assay, which measures the capacity of cells to metabolize the ALAMAR BLUE™ dye. The ALAMAR BLUE™ assay (available from Biosource International, Camarillo, Calif.) quantitatively measures the proliferation of cell lines and can establish the relative cytotoxicity of chemical agents. The assay incorporates a fluorometric/colorimetric growth indicator based on detection of metabolic activity. The system incorporates an oxidation-reduction (redox) indicator that both fluoresces and changes color in response to chemical reduction of growth medium resulting from cell growth. This causes the redox indicator to change from its oxidized, non-fluorescent, blue form to its reduced, fluorescent, red form. Data can be collected using either fluorescence-based instrumentation (530-560 nm excitation wavelength and 590 nm emission wavelength) or absorbance-based instrumentation (570 nm and 600 nm).
Similarly, the effect of receptor on viability of BAEC cells was compared to mouse Lewis lung carcinoma cells, using the same method.
The effect of angiocidin on HUVEC cell viability was evaluated, and FGF and TSP-1 were added to determine whether they ameliorated the angiocidin effect on cell viability. FGF (Fibroblast Growth Factor) is an endothelial cell mitogen, which promotes cell growth. […] TSP-1 was expected to reverse the inhibition of angiocidin; however, quantities added may have been insufficient to provide the correct molar ratio.
In general terms: Alamar Blue is a resazurin reagent that responds to reducing activity.

Data set [2] concerns the target T1, biotin-angiocidin complex binding to TSP-1 (Homo sapiens, UniProt P55036, INS254GER).
T1 sequence (P55036 with tags, fused parts or gaps INS254GER): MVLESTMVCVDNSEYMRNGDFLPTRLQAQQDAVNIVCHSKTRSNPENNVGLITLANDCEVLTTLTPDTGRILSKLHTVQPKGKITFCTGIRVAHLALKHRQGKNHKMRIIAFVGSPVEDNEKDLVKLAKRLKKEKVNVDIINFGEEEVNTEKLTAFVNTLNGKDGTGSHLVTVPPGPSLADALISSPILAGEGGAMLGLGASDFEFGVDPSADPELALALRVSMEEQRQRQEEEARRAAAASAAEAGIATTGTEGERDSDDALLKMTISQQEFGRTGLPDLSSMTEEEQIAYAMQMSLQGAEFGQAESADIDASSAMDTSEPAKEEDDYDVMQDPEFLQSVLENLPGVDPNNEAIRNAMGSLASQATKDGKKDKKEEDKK
Kind of data set: Biotin-avidin receptor binding assay: competition. The settings on record: Example 23, FIGS. 29 and 30. On the procedure:
In the following experiments, TSP-1 was covalently bound to a substrate, biotinylated angiocidin was added to the plate, and avidin-peroxidase was added to measure how much biotinylated angiocidin was attached to the TSP-1. The avidin-peroxidase was measured using a spectrophotometer at an absorbance of 450 nm.
Free angiocidin was added to the system to compete with the biotinylated angiocid in. […] Immobilized BSA was used as a negative control.
The TSP-1 peptide Cys-Ser-Val-Thr-Cys-Gly (SEQ ID NO: 1) was added to the system to compete with the TSP-1 on the plate for binding with the biotinylated angiocidin. The scrambled peptide Val-Cys-Thr-Gly-Ser-Cys (SEQ ID NO: 15) was used as a negative control and had no effect.
The avidin-biotin system discussed above was used to evaluate the competitive effect of various peptides on the binding of TSP-1 and angiocidin. […] The scrambled peptide Val-Cys-Thr-Gly-Ser-Cys-Gly (SEQ ID NO: 21) and the d-orientation peptide d-Cys-Ser-Val-Thr-Cys-Gly (SEQ ID NO: 22) were used as negative controls.

For data set [3], the system named is Bovine aortic endothelial cells (BAEC). Kind of data set: Collagen matrix angiogenesis assay (microvessel formation). The data set is classed as cell-based. Conditions: 37 μg/ml, 24 hours. As for the experimental part:
An experiment was performed to evaluate the effect of angiocidin on angiogenesis. Bovine aortic endothelial cells (BAEC) were plated on a collagen matrix. Next, the cells were over-layered with collagen. Angiocidin (37 μg/ml) was added on top of the cells in the treatment plate, and the control plate only received buffer. After 24 hours, phase contrast photomicrographs (200×) were taken. In the control plate, the BAEC cells rearranged themselves into a network of microvessels. […] This collagen assay is a well recognized model for angiogenesis. Qian et al., Thrombospondin-1 modulates angiogenesis in vitro by up-regulation of matrix metalloproteinase-9 in endothelial cells, Exp. Cell Res. 235:403-412 (1997).

The subject of data set [4] is BAEC. The data set is described as follows: Adhesion of BAEC to a substrate. The data set is classed as cell-based, bovine. Conditions: cells pretreated with 37 μg/ml, 30 minutes. On the procedure:
This example evaluates the effect of angiocidin on adhesion of BAEC to a substrate. Cells in the treatment group were pretreated with angiocidin (37 μg/ml). Cells in the control group were not pretreated. Cells (50,000) were immediately plated on microtiter wells coated with 2 μg of either fibronectin, TSP-1, or BSA. Fibronectin is a strong extracellular matrix protein that attracts BAEC and serves as a positive control, whereas BSA is not an adhesion protein and serves as a negative control. After 30 minutes non-adherent cells were aspirated, wells washed with PBS, fixed with 2.5% glutaraldehyde, stained with 2% Giemsa, and the number of adherent cells per 1 mm^2 counted.

The target of data set [5] is TSP-1 (Homo sapiens, UniProt P07996). The data set is described as follows: Optical binding of angiocidin fragments to TSP-1 derivatized cuvette. Conditions: test proteins at 10 nm in PBS buffer. On the procedure:
This study examines the amino terminal (Met1-Lys132) and carboxy terminal (IIe248-Lys380) portions of angiocidin (SEQ ID NOS: 24 and 25, respectively). The binding of undenatured recombinant angiocidin fragments was compared to full length angiocidin. GST was used as a negative control. Binding was evaluated using an optical binding method that uses a cuvette to which TSP-1 is covalently coupled. A laser beam was used to detect whether the test protein (fragments, angiocidin, or GST) is bound to the TSP-1 derivatized cuvette surface. The cuvette was derivatized with 1 μg of TSP-1. The cuvette surfaces were blocked with a 1% BSA solution to prevent nonspecific binding. The test proteins were added at a concentration of […] in a PBS buffer.

Data set [6] deals with fibroblast cells. Kind of data set: ALAMAR BLUE cell viability assay. Conditions: 37 μg/ml, 24 hours. The data set is classed as cell-based. On the procedure: as §1
Data set [7] concerns MDA-MB231 human breast carcinoma cells (MB231). Kind of data set: ALAMAR BLUE cell viability assay. The data set is classed as cell-based. The settings on record: 37 μg/ml, 24 hours. On the procedure:
as §1

Data set [8] relates to MCF7 human breast carcinoma cells (MCF7). Kind of data set: ALAMAR BLUE cell viability assay. The data set is classed as cell-based. The settings on record: 37 μg/ml, 24 hours. On the procedure:
as §1

Data set [9] relates to A549 human lung carcinoma cells (A549). Kind of data set: ALAMAR BLUE cell viability assay. The format is cell-based. The settings on record: 37 μg/ml, 24 hours. On the procedure: as §1

Sequence of TSP-1 (P07996 19-1170): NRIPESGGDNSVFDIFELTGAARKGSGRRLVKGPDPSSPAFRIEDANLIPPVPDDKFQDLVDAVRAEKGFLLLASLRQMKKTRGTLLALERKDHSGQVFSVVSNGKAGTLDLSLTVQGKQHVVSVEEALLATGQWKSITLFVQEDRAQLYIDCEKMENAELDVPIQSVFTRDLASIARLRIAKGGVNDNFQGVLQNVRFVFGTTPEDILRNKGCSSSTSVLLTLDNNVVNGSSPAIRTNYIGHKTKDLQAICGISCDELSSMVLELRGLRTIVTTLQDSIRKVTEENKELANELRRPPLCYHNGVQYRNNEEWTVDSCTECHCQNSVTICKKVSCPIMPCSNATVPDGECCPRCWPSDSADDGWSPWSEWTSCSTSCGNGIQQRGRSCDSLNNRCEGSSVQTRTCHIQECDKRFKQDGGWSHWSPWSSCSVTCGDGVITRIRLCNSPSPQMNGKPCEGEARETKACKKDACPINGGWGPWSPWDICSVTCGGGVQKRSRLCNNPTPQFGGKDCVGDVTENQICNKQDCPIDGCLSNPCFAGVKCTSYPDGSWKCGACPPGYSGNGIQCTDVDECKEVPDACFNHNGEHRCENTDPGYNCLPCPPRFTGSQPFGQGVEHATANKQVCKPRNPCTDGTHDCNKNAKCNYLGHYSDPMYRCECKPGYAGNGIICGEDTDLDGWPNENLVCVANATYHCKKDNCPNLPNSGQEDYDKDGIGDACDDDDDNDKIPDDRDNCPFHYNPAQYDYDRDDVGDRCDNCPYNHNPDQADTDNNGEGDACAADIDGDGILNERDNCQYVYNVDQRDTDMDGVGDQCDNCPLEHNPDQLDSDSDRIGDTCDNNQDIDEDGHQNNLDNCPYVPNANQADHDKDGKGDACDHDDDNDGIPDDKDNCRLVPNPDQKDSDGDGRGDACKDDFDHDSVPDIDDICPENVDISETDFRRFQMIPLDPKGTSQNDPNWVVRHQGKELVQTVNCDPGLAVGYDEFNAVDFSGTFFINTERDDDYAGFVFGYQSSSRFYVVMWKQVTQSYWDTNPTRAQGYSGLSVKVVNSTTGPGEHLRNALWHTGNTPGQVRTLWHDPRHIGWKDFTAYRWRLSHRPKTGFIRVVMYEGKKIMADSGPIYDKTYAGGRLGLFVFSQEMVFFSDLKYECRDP

On to “angiocidin: Cys-Ser-Val-Thr-Cys-Gly (SEQ ID NO: 1)-specific thrombospondin (TSP-1) receptor protein; recombinant form of SEQ ID NO: 2 used in the Examples”, for which the cell viability result in data set [1] (0 to 37 μg/ml) is on record as “decreasing their viability”; in [6], “No significant difference”; in [7], “No significant difference”; in data set [8], “No significant difference”; in data set [9], “No significant difference”. Also, the “decrease of cell viability” value in data set [1] (37 μg/ml) is 70-80%. Besides, the “competition of biotin-angiocidin binding to TSP-1” value in data set [2] is “the binding decreased linearly”. Also, the microvessel formation entry in data set [3] is “the microvessels did not form and the cells appeared dead”. Besides, the “adhesion of BAEC” value in data set [4] (TSP-1 coated wells) is recorded as “significantly reduced the adhesion of BAEC to the TSP-1 coated plates”; in data set [4] (fibronectin coated wells), “remained the same”. Further, the “binding to TSP-1 derivatized cuvette” value in [5] is “show very similar binding at the nano molar range”.

The record behind these values is patent US20030180295A1, “Angiocidin: a Cys-Ser-Val-Thr-Cys-Gly specific tumor cell adhesion receptor” (Philadelphia Health and Education Corporation, priority 1999, published 2003).
